Data from patent US20030087947A1, “Novel photosensitizers of 9-hydroxypheophorbide-a derivatives used for photodynamic therapy” (priority 2000, published 2003).

Tests used:
cancer cell line = assay: FACS analysis of cell cycle; type: cell-based; conditions: FACS analysis after treatment
SNU-1041 implanted tumor [1] = assay: Therapeutic effect at the implanted tumor (3 groups, bare fiber tip laser); type: in vivo, nude mice BALB/C/nu/nu; conditions: among 10 cases; intratumoral injection 0.1˜0.2 ml, 660 nm diode laser after 1˜4 hours
Method: As experimental animals, 6 weeks aged male nude mice BALB/C/nu/nu were employed, supplying sterilized water and sterilized feed. These animals were bred in filter-top cage under proper temperature and moisture. To implant cultured cancer cell lines into nude mouse, 0.1 ml of SNU-1041 cell line suspension (10^7 cells/0.1 ml) was injected subcutaneously. After injection, the tumor occurred and the volume of tumor became increased after more than 8 weeks observation.
Plain melanoma cell line SNU-1041 was implanted into nude mouse. After the lapse of 8 weeks, it was observed that the tumor became spread in all body. The photodynamic therapy was performed only after the tumor volume became 100˜600 mm^3.
The experimental groups were divided into 3 groups for photodynamic therapy. 660 nm diode laser was inserted and irradiated using bare fiber tip. By monitoring the temperature outside of the tumor, the therapeutic effect caused by hyperthermia was removed. The optimal irradiation strength and time were measured.
The photodynamic therapy was performed when the volume of implanted tumor became about 100˜600 mm^3. The experimental groups were divided into 3 groups.
0.1˜0.2 ml of 9-HPbD-a (0.75 mg/ml) was injected into tumor using 30G syringe. After 1˜4 hours, 660 nm diode laser was irradiated using […] fiber optic tip. […]

cyclin B1 = assay: Western blot analysis of cell cycle regulation during photodynamic therapy; type: cell-based; conditions: 75˜0.0185 μg/ml, 20 joule total light dose
Method: FIG. 1 is a photograph showing cell cycle regulation after treating 9-hydroxypheophorbide-a of formula (I) to the cancer cell line.
The change of cell cycle is a key element for evaluating cancer treatment. In most anti-cancer agents, the growth of cancer cells is suppressed by regulating the expression of cell cycle regulation gene. In this example, the change of cell cycle was measured using 9-HPbD-a during the photodynamic therapy. Using various cencentrations of photosensitizer (75˜0.0185 μg/ml) under 20 joule in total light dose, Western blot analysis was carried out to detect the change of cell cycle in accordance with change of regulation activity of cell cycle regulation gene.

[2] = system: lung cancer A549 cell line; assay: Cytotoxicity of photosensitizer without irradiation (dark culture, cell death rate); type: cell-based; conditions: 75 μg/ml, dark culture room, 48 hours, no irradiation, mean of 5 experiments
Method: (§1) In order to minimize the side light reaction by natural light and lamp, the cell distribution and medium exchange were carried out in green light (500 nm), where the experimental samples were not reacted. After 75 μg/ml of reagent treatment on each 10 dishes at the dark culture room, the experimental samples were cultured for 48 hours. Then, the cell death rate was measured. The data was calculated as a mean value after 5 times experiments. […] Further, the cytotoxicity of 9-HPbD-a could be neglectable.

[3] = system: lung cancer A549 cell line; assay: In-vitro photodynamic therapy efficacy (cell death after irradiation); type: cell-based
Method: The cell line added with “Photogem” was treated and irradiated by red light (570˜650 nm, 0.35 mW/cm^2, 315 J/m^2) from fluorescent lamp and the test sample was treated and irradiated by same red light and laser (660 nm, 0.35 mW/cm^2, 315 J/m^2). After irradiation treatment, the cell line was cultured by adding new medium and 10% of fetal calf serum at 37° C. The cytotoxicity was measured by clonogenic assay after 8 days.
The dose-response curve was prepared after following treatment; i) treating each 25 µg/ml of Photogem, 10-hydroxypheophytin-a and 9-hydroxypheophorbide-a (“9-HPbD-a”) to each cell line; ii) laying them for 2 hours; and iii) treating and irradiating the 660 nm light (315 J/m^2). To the Photogem sample, the light (630±10 nm) was used by 1 KW Xenon lamp (Model A 5000; Photon Technology International Inc.; Power density 75 mW/cm^2) equipped with 5 mm diameter of liquid light guide (2000A, Luminex, Munich, Germany).
as §1
Further, in a small amount (0.75 μg/ml), high cell death effect was detected. Using another synthesized compound of 9-HPbD-a in the other batch, the experiment was performed according to same protocol again. We detected the same result through the repeated experiments.
With a very small amount 0.0185 μg/ml of administration, the cell death treated with 9-HPbD-a occurred according to the increase of total light dose.

SNU-1041 implanted tumor [4] = assay: Photodynamic therapy using 9-HPbD-a (6 groups, tumor volume and RTG); type: in vivo, nude mice BALB/C/nu/nu
Method: The experimental groups were divided into 6 groups when the volume of implanted tumor became about 100˜600 mm^3. Following treatment was performed and the change of tumor was observed.
With only 0.1˜0.15 ml of administration of 9-HPbD-a and liposome conjugate into the tumor, the change of tumor was observed without irradiation.
With only 0.1˜0.15 ml of administration of Photogem into the tumor, the change of tumor was observed without irradiation.
0.1˜0.15 ml of Photogem was administered into the tumor.
0.1˜0.15 ml of 9-HPbD-a and liposome conjugate was administered into the tumor.
The photodynamic therapy was initiated after 2 weeks from implantation of cancer cell line, when the volume of tumor became about 100˜600 mm^3 (FIG. 6).
The measurements of tumor volume were carried out at the time of just before administration of test material; just after administration of 9-HPbD-a; 1 week after administration; 2 weeks after administration; 3 weeks after administration; and 4 weeks after administration. The anti-cancer effect was evaluated by the volume of tumor. The calculation of volume was carried out by using following equation.
(V=volume, A=long axis, B=short axis, C=height)
The evaluation of anti-cancer effect was decided after 4 weeks observation of tumor volume. […] FIG. 7 is a photograph showing that the tumor is treated by administration of 9-HPbD-a with 660 nm diode laser irradiation.

[5] = when used in more than a certain amount; cited from earlier work
[6] = decomposing slowly in the room temperature; cited from earlier work
[7] = 0.0185 μg/ml, total light dose 100 joule
[8] = 0.0375 μg/ml, total light dose 100 joule
[9] = 0.075 μg/ml, total light dose 100 joule
[10] = 0.75 μg/ml, total light dose 20 joule, 665 nm monochromatic light
[11] = 0.75 μg/ml, total light dose 100 joule
[12] = 7.5 μg/ml, total light dose 20 joule, 665 nm monochromatic light
[13] = 75 μg/ml, total light dose 20 joule, 665 nm monochromatic light
[14] = after 4 weeks from treatment, administration into tumor with 660 nm diode laser irradiation

| Compound | Cell cycle effect (cancer cell line) | Cases showing complete elimination of tumor (SNU-1041 implanted tumor [1]) [cases] | Cases showing partial elimination of tumor (SNU-1041 implanted tumor [1]) [cases] | Amount of cyclin B1 (cyclin B1) | Cytotoxicity (cell death rate) [2] [%] | Efficacy (cell death) [3, 7] [%] | Efficacy (cell death) [3, 8] [%] | Efficacy (cell death) [3, 9] [%] | Efficacy (cell death) [3, 10] | Efficacy (cell death) [3, 11] [%] | Efficacy (cell death) [3, 12] | Efficacy (cell death) [3, 13] [%] | Concentration, relative to known photosensitizer concentration, showing considerable cell death effect ([3]; A549, total light dose 20 joule) | Relative tumor growth (RTG) (SNU-1041 implanted tumor [4]; [14]) | Volume of tumor (SNU-1041 implanted tumor [4]; [14]) [mm^3] | Change of tumor volume (SNU-1041 implanted tumor [4]; photosensitizer into the tumor only, without irradiation (Group 3 and 4)) | Toxicity [5] | Efficacy (cell death) ([3]; 7.5 μg/ml, total light dose 100 joule) [%] | Stability [6] |
| --- | --- | --- | --- | --- | --- | --- | --- | --- | --- | --- | --- | --- | --- | --- | --- | --- | --- | --- | --- |
| C=Cc1c(C)c2cc3nc(c4c5[nH]c(cc6nc(cc1[nH]2)C(C)=C6CC)c(C)c5C(O)[C@@H]4C(=O)OC)[C@@H](CCC(=O)O)[C@@H]3C (stereo partly drawn) [9-HPbD-a, 9-hydroxypheophorbide-a] | cell cycle arrest occurred in G2/M cell cycle | 3 | 7 | rapidly declined | 10.05 | 10 | 25 | 100 | 10˜20% | 100 | 100% | 100 | 1/100 | 3.5 | 646 | no observation of decline of tumor volume |  |  |  |
| C=Cc1c(C)c2cc3nc(c4c5[nH]c(cc6nc(cc1[nH]2)C(C)=C6CC)c(C)c5C(=O)C4(O)C(=O)OC)C(CCC(=O)OCC=C(C)CCCC(C)CCCC(C)CCCC(C)C)C3C (stereo not drawn) [10-hydroxypheophytin-a, reference compound] |  |  |  |  | 3.94 | 0 | 0 | 0 | 0% | 5.85 | 5˜10% | <70 |  |  |  |  | fatal toxicity | 100 |  |
| C=Cc1c(C)c2cc3nc(c4c5[nH]c(cc6nc(cc1[nH]2)C(C)=C6CC)c(C)c5C(=O)[C@@H]4C(=O)OC)[C@@H](CCC(=O)O)[C@@H]3C [pheophorbide-a] |  |  |  |  |  |  |  |  |  |  |  |  |  |  |  |  |  |  | low stability |
